Tests used:
[1] = test system: intraluminal occlusion of the middle cerebral artery (MCA); test: Grip test after MCA occlusion; type: in vivo, Sprague-Dawley rats; settings: 7 and 14 days after ischemia, 12 nmol/kg i.v. before MCA occlusion, n=8/group
[2] = test system: intracerebral hemorrhage and traumatic brain injury; settings: intravenous administration; cited from earlier work

Row | Substance | grip test vs control [1] | cerebral blood flow [2] | functional outcome [2] | inflammation and brain injury [2]
1 | human BNP [hBNP] | no differences were observed | – | – | –
2 | nesiritide | – | improved the cerebral blood flow | better functional outcome | reduced the inflammation and brain injury
